≈ marks a conversion by molar mass, not a printed value. Positions of bridges follow the written chain, without caps; N, C: chain ends. Non-standard residues stand in square brackets, D forms with d. Residues, ends and D or L forms follow the SMILES beside them. *: point of attachment. Benzoyl(4-Et) = CCc1ccc(C(=O)*)cc1; X18 = O=C(c1ccc(Cl)c(C(F)(F)F)c1)*; X21 = O=C(c1ccc(C(F)(F)F)c(Cl)c1)*; X15 = O=C(c1ccc(Cl)c(F)c1)*; X19 = Cc1cc(Cl)cc(C(=O)*)c1; X22 = CC(C)c1ccc(C(=O)*)cc1; Dab = NCC[C@H](N)C(=O)O; Abu = CC[C@H](N)C(=O)O; Dap = NC[C@H](N)C(=O)O
Key:
P. aeruginosa ATCC 27853 = assay: In vivo efficacy in mouse blood infection model (neutropenic Swiss mice); conditions: compound, free base 4 mg/kg intravenously 2 h after inoculation, blood at 4 h
Description: P. aeruginosa ATCC 27853, A. baumannii ATCC 19606 and K. pneumoniae FADDI-KP032 were subcultured on nutrient agar plates. One colony of each bacterial strain was dispersed in 10-mL CAMHB and incubated overnight. On day 2, an aliquot (0.2 mL) of each overnight culture suspension was dispersed in 20-mL CAMHB and incubated for 1.5-2.5 h for production of early log-phase growth bacterial culture. The bacteria in the early log-phase growth suspension were concentrated by centrifugation (3,220 g for 10 min) and re-suspended in sterile 0.9% saline for inoculation into mice. The bacterial cell concentration (colony forming unit [CFU]/mL) in saline was estimated by determining the optical density (OD) of the suspension at 600 nm, and confirmed by plating the suspension on nutrient agar plates. Swiss mice (22 to 28 g) were rendered neutropenic by injecting two doses of cyclophosphamide intraperitoneally, −4 day (150 mg/kg) and −1 day (100 mg/kg) prior to inoculation. Bloodstream infection was established by injecting intravenously 50 μL of early log-phase bacterial suspension (10^8-10^9 CFU/mL). The exact injection volume for each bacterial suspension was calculated based upon the OD value of the bacterial suspension and the desired inoculum for each isolate.
Solutions for administration of colistin, polymyxin B or the compounds were prepared at a concentration of 1 mg (free base) per mL in sterile 0.9% saline. At 2 h after inoculation, a mouse in the treatment groups was injected intravenously with one of the above solutions at 4 μL/g body weight (BW) (i.e. free base 4 mg/kg BW), while the same volume of saline was injected into the control mice. At 0 h or at 4 h after the administration of antibacterial drug or saline (control), animals were euthanised by inhalation of overdose isoflurane. The skin on the chest and fore-paws of each animal was thoroughly cleansed with 70% ethanol and Betadine®. The blood was collected via cardiac puncture using a 1-mL syringe rinsed with heparin (5,000 IU/mL), diluted serially in sterile 0.9% saline and plated on nutrient agar plates using a spiral plater.
The agar plates were incubated at 37° C. overnight. The bacterial colonies on the plate were counted and CFU/mL of the blood was calculated. The log10 CFU/mL of blood in each mouse was calculated. The in vivo activity of the compounds against the bacteria was calculated as the difference of the log10 CFU/mL values between the treated mice and the control mice at 4 h (Δ log=log10 (treated)CFU/mL−log10 (control)CFU/mL).
Any compound showing a decrease in bacterial loading (Δ log) of ≥2 at 4 h is considered to have good in vivo efficacy in this initial screening model.

Enterobacter cloacae = system: Enterobacter cloacae
Outline: (§1)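 Using polymyxin B sulphate as comparator control, the trifluoroacetate-salt lipopeptides were assayed in CAMHB by broth microdilution to CLSI M100-S18, and MICs recorded.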

Pseudomonas aeruginosa = system: Pseudomonas aeruginosa
Outline: as §1

Klebsiella pneumoniae = system: Klebsiella pneumoniae
Outline: as §1

Acinetobacter baumannii = system: Acinetobacter baumannii
Outline: as §1

## CC[C@@H]1NC(=O)[C@@H](CC(C)C)NC(=O)[C@H](CCN)NC(=O)[C@@H](NC(=O)[C@H](CN)NC(=O)[C@@H](NC(=O)[C@H](CCN)NC(=O)c2ccc(C(C)C)cc2)[C@@H](C)O)CCNC(=O)[C@H]([C@@H](C)O)NC(=O)[C@H](CCN)NC(=O)[C@H](CCN)NC1=O [Compound 99] (X22-[Dab]T[Dap][Dab][Dab][dL][Abu][Dab][Dab]T; lactam 4-C)
P. aeruginosa ATCC 27853
  Δ log (Treated-Control at 4 h): −3.21 log10 CFU/mL
Enterobacter cloacae
  Minimum inhibitory concentration, Ec FADDI-EC001: 0.25 µg/mL (≈ 0.221 µM)
  Minimum inhibitory concentration, Ec FADDI-EC003: 0.25 µg/mL (≈ 0.221 µM)
  Minimum inhibitory concentration, Ec FADDI-EC006: 0.5 µg/mL (≈ 0.441 µM)
Pseudomonas aeruginosa
  MIC: 1 µg/mL (≈ 0.882 µM)
  Minimum inhibitory concentration, Pa ATCC 27853: 1 µg/mL (≈ 0.882 µM)
  Minimum inhibitory concentration, Pa FADDI-PA022: 0.5 µg/mL (≈ 0.441 µM)
  Minimum inhibitory concentration, Pa FADDI-PA025: 2 µg/mL (≈ 1.76 µM)
Klebsiella pneumoniae
  MIC: 0.5 µg/mL (≈ 0.441 µM)
Acinetobacter baumannii
  MIC: 1 µg/mL (≈ 0.882 µM)
  Minimum inhibitory concentration, Ab A ATCC 17978: 0.25 µg/mL (≈ 0.221 µM)
  Minimum inhibitory concentration, Ab ATCC 19606: 1 µg/mL (≈ 0.882 µM)
  Minimum inhibitory concentration, Ab FADDI-AB034: 0.25 µg/mL (≈ 0.221 µM)

## CCc1ccc(C(=O)N[C@@H](CCN)C(=O)N[C@H](C(=O)N[C@@H](CN)C(=O)N[C@H]2CCNC(=O)[C@H]([C@@H](C)O)NC(=O)[C@H](CCN)NC(=O)[C@H](CCN)NC(=O)[C@H](CC)NC(=O)[C@@H](CC(C)C)NC(=O)[C@H](CCN)NC2=O)[C@@H](C)O)cc1 [Compound 100] ({Benzoyl(4-Et)}-[Dab]T[Dap][Dab][Dab][dL][Abu][Dab][Dab]T; lactam 4-C)
P. aeruginosa ATCC 27853
  Δ log (Treated-Control at 4 h): −3.83 (−3.83) log10 CFU/mL
Enterobacter cloacae
  Minimum inhibitory concentration, Ec FADDI-EC001: 0.25 µg/mL (≈ 0.223 µM)
  Minimum inhibitory concentration, Ec FADDI-EC003: 0.5 µg/mL (≈ 0.447 µM)
  Minimum inhibitory concentration, Ec FADDI-EC006: 0.5 µg/mL (≈ 0.447 µM)
Pseudomonas aeruginosa
  MIC: 0.5 µg/mL (≈ 0.447 µM)
  Minimum inhibitory concentration, Pa ATCC 27853: 0.5 µg/mL (≈ 0.447 µM)
  Minimum inhibitory concentration, Pa FADDI-PA022: 0.5 µg/mL (≈ 0.447 µM)
  Minimum inhibitory concentration, Pa FADDI-PA025: 2 µg/mL (≈ 1.79 µM)
Klebsiella pneumoniae
  MIC: 0.5 µg/mL (≈ 0.447 µM)
Acinetobacter baumannii
  MIC: 2 µg/mL (≈ 1.79 µM)
  Minimum inhibitory concentration, Ab A ATCC 17978: 1 µg/mL (≈ 0.893 µM)
  Minimum inhibitory concentration, Ab ATCC 19606: 2 µg/mL (≈ 1.79 µM)
  Minimum inhibitory concentration, Ab FADDI-AB034: 1 µg/mL (≈ 0.893 µM)

## CC[C@@H]1NC(=O)[C@@H](CC(C)C)NC(=O)[C@H](CCN)NC(=O)[C@@H](NC(=O)[C@H](CN)NC(=O)[C@@H](NC(=O)[C@H](CCN)NC(=O)c2ccc(Cl)c(F)c2)[C@@H](C)O)CCNC(=O)[C@H]([C@@H](C)O)NC(=O)[C@H](CCN)NC(=O)[C@H](CCN)NC1=O [Compound 107] (X15-[Dab]T[Dap][Dab][Dab][dL][Abu][Dab][Dab]T; lactam 4-C)
P. aeruginosa ATCC 27853
  Δ log (Treated-Control at 4 h): −2.98 log10 CFU/mL
Enterobacter cloacae
  Minimum inhibitory concentration, Ec FADDI-EC001: 0.25 µg/mL (≈ 0.219 µM)
  Minimum inhibitory concentration, Ec FADDI-EC003: 0.25 µg/mL (≈ 0.219 µM)
  Minimum inhibitory concentration, Ec FADDI-EC006: 0.25 µg/mL (≈ 0.219 µM)
Pseudomonas aeruginosa
  MIC: 0.5 µg/mL (≈ 0.437 µM)
  Minimum inhibitory concentration, Pa ATCC 27853: 0.5 µg/mL (≈ 0.437 µM)
  Minimum inhibitory concentration, Pa FADDI-PA022: 0.5 µg/mL (≈ 0.437 µM)
  Minimum inhibitory concentration, Pa FADDI-PA025: 2 µg/mL (≈ 1.75 µM)
Klebsiella pneumoniae
  MIC: 0.25 µg/mL (≈ 0.219 µM)
Acinetobacter baumannii
  MIC: 2 µg/mL (≈ 1.75 µM)
  Minimum inhibitory concentration, Ab A ATCC 17978: 0.5 µg/mL (≈ 0.437 µM)
  Minimum inhibitory concentration, Ab ATCC 19606: 2 µg/mL (≈ 1.75 µM)
  Minimum inhibitory concentration, Ab FADDI-AB034: 0.25 µg/mL (≈ 0.219 µM)

## CC[C@@H]1NC(=O)[C@@H](CC(C)C)NC(=O)[C@H](CCN)NC(=O)[C@@H](NC(=O)[C@H](CN)NC(=O)[C@@H](NC(=O)[C@H](CCN)NC(=O)c2ccc(Cl)c(C(F)(F)F)c2)[C@@H](C)O)CCNC(=O)[C@H]([C@@H](C)O)NC(=O)[C@H](CCN)NC(=O)[C@H](CCN)NC1=O [Compound 112] (X18-[Dab]T[Dap][Dab][Dab][dL][Abu][Dab][Dab]T; lactam 4-C)
P. aeruginosa ATCC 27853
  Δ log (Treated-Control at 4 h): −3.15 log10 CFU/mL
Enterobacter cloacae
  Minimum inhibitory concentration, Ec FADDI-EC001: 0.5 µg/mL (≈ 0.419 µM)
  Minimum inhibitory concentration, Ec FADDI-EC003: 0.25 µg/mL (≈ 0.209 µM)
  Minimum inhibitory concentration, Ec FADDI-EC006: 0.5 µg/mL (≈ 0.419 µM)
Pseudomonas aeruginosa
  MIC: 0.5 µg/mL (≈ 0.419 µM)
  Minimum inhibitory concentration, Pa ATCC 27853: 0.5 µg/mL (≈ 0.419 µM)
  Minimum inhibitory concentration, Pa FADDI-PA022: 0.5 µg/mL (≈ 0.419 µM)
  Minimum inhibitory concentration, Pa FADDI-PA025: 1 µg/mL (≈ 0.838 µM)
Klebsiella pneumoniae
  MIC: 0.5 µg/mL (≈ 0.419 µM)
Acinetobacter baumannii
  MIC: 0.25 µg/mL (≈ 0.209 µM)
  Minimum inhibitory concentration, Ab A ATCC 17978: <0.125 µg/mL
  Minimum inhibitory concentration, Ab ATCC 19606: 0.25 µg/mL (≈ 0.209 µM)
  Minimum inhibitory concentration, Ab FADDI-AB034: 0.25 µg/mL (≈ 0.209 µM)

## CC[C@@H]1NC(=O)[C@@H](CC(C)C)NC(=O)[C@H](CCN)NC(=O)[C@@H](NC(=O)[C@H](CN)NC(=O)[C@@H](NC(=O)[C@H](CCN)NC(=O)c2cc(C)cc(Cl)c2)[C@@H](C)O)CCNC(=O)[C@H]([C@@H](C)O)NC(=O)[C@H](CCN)NC(=O)[C@H](CCN)NC1=O [Compound 114] (X19-[Dab]T[Dap][Dab][Dab][dL][Abu][Dab][Dab]T; lactam 4-C)
P. aeruginosa ATCC 27853
  Δ log (Treated-Control at 4 h): −2.57 log10 CFU/mL
Enterobacter cloacae
  Minimum inhibitory concentration, Ec FADDI-EC001: 0.25 µg/mL (≈ 0.219 µM)
  Minimum inhibitory concentration, Ec FADDI-EC003: 0.25 µg/mL (≈ 0.219 µM)
  Minimum inhibitory concentration, Ec FADDI-EC006: 0.25 µg/mL (≈ 0.219 µM)
Pseudomonas aeruginosa
  MIC: 0.5 µg/mL (≈ 0.439 µM)
  Minimum inhibitory concentration, Pa ATCC 27853: 0.5 µg/mL (≈ 0.439 µM)
  Minimum inhibitory concentration, Pa FADDI-PA022: 1 µg/mL (≈ 0.877 µM)
  Minimum inhibitory concentration, Pa FADDI-PA025: 1 µg/mL (≈ 0.877 µM)
Klebsiella pneumoniae
  MIC: 0.25 µg/mL (≈ 0.219 µM)
Acinetobacter baumannii
  MIC: 2 µg/mL (≈ 1.75 µM)
  Minimum inhibitory concentration, Ab A ATCC 17978: 0.5 µg/mL (≈ 0.439 µM)
  Minimum inhibitory concentration, Ab ATCC 19606: 2 µg/mL (≈ 1.75 µM)
  Minimum inhibitory concentration, Ab FADDI-AB034: 0.5 µg/mL (≈ 0.439 µM)

## CC[C@@H]1NC(=O)[C@@H](CC(C)C)NC(=O)[C@H](CCN)NC(=O)[C@@H](NC(=O)[C@H](CN)NC(=O)[C@@H](NC(=O)[C@H](CCN)NC(=O)c2ccc(C(F)(F)F)c(Cl)c2)[C@@H](C)O)CCNC(=O)[C@H]([C@@H](C)O)NC(=O)[C@H](CCN)NC(=O)[C@H](CCN)NC1=O [Compound 115] (X21-[Dab]T[Dap][Dab][Dab][dL][Abu][Dab][Dab]T; lactam 4-C)
P. aeruginosa ATCC 27853
  Δ log (Treated-Control at 4 h): −2.71 log10 CFU/mL
Enterobacter cloacae
  Minimum inhibitory concentration, Ec FADDI-EC001: 0.25 µg/mL (≈ 0.209 µM)
  Minimum inhibitory concentration, Ec FADDI-EC003: 0.25 µg/mL (≈ 0.209 µM)
  Minimum inhibitory concentration, Ec FADDI-EC006: 0.25 µg/mL (≈ 0.209 µM)
Pseudomonas aeruginosa
  MIC: 1 µg/mL (≈ 0.838 µM)
  Minimum inhibitory concentration, Pa ATCC 27853: 1 µg/mL (≈ 0.838 µM)
  Minimum inhibitory concentration, Pa FADDI-PA022: 0.5 µg/mL (≈ 0.419 µM)
  Minimum inhibitory concentration, Pa FADDI-PA025: 1 µg/mL (≈ 0.838 µM)
Klebsiella pneumoniae
  MIC: 0.125 µg/mL (≈ 0.105 µM)
Acinetobacter baumannii
  MIC: 0.5 µg/mL (≈ 0.419 µM)
  Minimum inhibitory concentration, Ab A ATCC 17978: 0.5 µg/mL (≈ 0.419 µM)
  Minimum inhibitory concentration, Ab ATCC 19606: 0.5 µg/mL (≈ 0.419 µM)
  Minimum inhibitory concentration, Ab FADDI-AB034: 0.5 µg/mL (≈ 0.419 µM)

Source: patent USRE48335E1, “Polymyxin derivatives as antimicrobial compounds” (priority 2014, dated 2020)
